Results: ChEMBL document CHEMBL3784981, “Anti-inflammatory, analgesic and antioxidant activities of novel kyotorphin-nitroxide hybrid molecules” (Bioorg Med Chem Lett, 2016)
Active and inactive are the calls of the source.

Legend:
Mus musculus [1] = experiment: Analgesic activity in ICR mouse assessed as pain threshold at 1 umol/kg administered through oral gavage after 90 mins by tail flick method; assay type: functional
Mus musculus [2] = experiment: Antiinflammatory activity in ICR mouse assessed as inhibition of xylene-induced ear edema at 0.1 umol/kg, po administered 30 mins prior to xylene challenge measured after 2hrs; assay type: functional; conditions: for inhibition in vivo at 0.1 µmol/kg: Mus musculus, ICR, Ear, po
Mus musculus [3] = experiment: Analgesic activity in ICR mouse assessed as pain threshold at 1 umol/kg administered through oral gavage after 150 mins by tail flick method; assay type: functional
Mus musculus [4] = experiment: Analgesic activity in ICR mouse assessed as pain threshold at 1 umol/kg administered through oral gavage after 60 mins by tail flick method; assay type: functional
Mus musculus [5] = experiment: Analgesic activity in ICR mouse assessed as pain threshold at 1 umol/kg administered through oral gavage after 120 mins by tail flick method; assay type: functional
Mus musculus [6] = experiment: Analgesic activity in ICR mouse assessed as pain threshold at 1 umol/kg administered through oral gavage after 180 mins by tail flick method; assay type: functional
Mus musculus [7] = experiment: Analgesic activity in ICR mouse assessed as pain threshold at 1 umol/kg administered through oral gavage after 30 mins by tail flick method; assay type: functional
Mus musculus [8] = experiment: Analgesic activity in ICR mouse assessed as pain threshold at 165 umol/kg administered through oral gavage after 30 mins by tail flick method; assay type: functional
Mus musculus [9] = experiment: Analgesic activity in ICR mouse assessed as pain threshold at 165 umol/kg administered through oral gavage after 180 mins by tail flick method; assay type: functional
Mus musculus [10] = experiment: Analgesic activity in ICR mouse assessed as pain threshold at 165 umol/kg administered through oral gavage after 150 mins by tail flick method; assay type: functional
Mus musculus [11] = experiment: Analgesic activity in ICR mouse assessed as pain threshold at 165 umol/kg administered through oral gavage after 90 mins by tail flick method; assay type: functional
Mus musculus [12] = experiment: Analgesic activity in ICR mouse assessed as pain threshold at 165 umol/kg administered through oral gavage after 120 mins by tail flick method; assay type: functional
Mus musculus [13] = experiment: Analgesic activity in ICR mouse assessed as pain threshold at 165 umol/kg administered through oral gavage after 60 mins by tail flick method; assay type: functional
Mus musculus [14] = experiment: Analgesic activity in ICR mouse assessed as pain threshold at 0.15 umol/kg administered through oral gavage after 30 mins by tail flick method; assay type: functional
Mus musculus [15] = experiment: Analgesic activity in ICR mouse assessed as pain threshold at 0.15 umol/kg administered through oral gavage after 180 mins by tail flick method; assay type: functional
HUVEC [16] = experiment: Inhibition of simulated ischemia/reperfusion-induced cytochrome C release in human HUVEC cells at 30 ug/ml after 2 hrs by fluorescence assay (reference value: 75.3 +/- 5.2 %); assay type: functional; design: scale not given: the % may be the effect or the level left
Mus musculus [17] = experiment: Analgesic activity in ICR mouse assessed as pain threshold at 0.1 umol/kg administered through oral gavage after 120 mins by tail flick method; assay type: functional
Mus musculus [18] = experiment: Analgesic activity in ICR mouse assessed as pain threshold at 0.15 umol/kg administered through oral gavage after 150 mins by tail flick method; assay type: functional
Mus musculus [19] = experiment: Analgesic activity in ICR mouse assessed as pain threshold at 0.05 umol/kg administered through oral gavage after 30 mins by tail flick method; assay type: functional
Mus musculus [20] = experiment: Analgesic activity in ICR mouse assessed as pain threshold at 0.1 umol/kg administered through oral gavage after 90 mins by tail flick method; assay type: functional
HUVEC [21] = experiment: Inhibition of simulated ischemia/reperfusion-induced human HUVEC cells death assessed as decrease in fragmented mitochondria at 30 ug/ml after 2 hrs by Hoechst 33342 dye based fluorescence assay; assay type: functional, cell-based
Mus musculus [22] = experiment: Analgesic activity in ICR mouse assessed as pain threshold at 0.1 umol/kg administered through oral gavage after 30 mins by tail flick method; assay type: functional
Mus musculus [23] = experiment: Analgesic activity in ICR mouse assessed as pain threshold at 0.05 umol/kg administered through oral gavage after 120 mins by tail flick method; assay type: functional
Mus musculus [24] = experiment: Analgesic activity in ICR mouse assessed as pain threshold at 0.1 umol/kg administered through oral gavage after 180 mins by tail flick method; assay type: functional
Mus musculus [25] = experiment: Analgesic activity in ICR mouse assessed as pain threshold at 0.1 umol/kg administered through oral gavage after 60 mins by tail flick method; assay type: functional
[26] = Antioxidant activity in H2O2/Fe(II)-stimulated rat PC12 cells assessed as OH radical scavenging activity measured by cell survival preincubated with compound for 1 hr measured after 14 hrs by MTT assay; assay type: functional, cell-based; conditions: pc-12
Mus musculus [27] = experiment: Analgesic activity in ICR mouse assessed as pain threshold at 0.1 umol/kg administered through oral gavage after 150 mins by tail flick method; assay type: functional
Mus musculus [28] = experiment: Analgesic activity in ICR mouse assessed as pain threshold at 0.15 umol/kg administered through oral gavage after 60 mins by tail flick method; assay type: functional
HUVEC [29] = experiment: Inhibition of simulated ischemia/reperfusion-induced human HUVEC cells death assessed as increase in tubular mitochondria levels at 30 ug/ml after 2 hrs by Hoechst 33342 dye based fluorescence assay (reference value: 11.3 +/- 2.1 %); assay type: functional; design: scale not given: the % may be the effect or the level left
Mus musculus [30] = experiment: Analgesic activity in ICR mouse assessed as pain threshold at 0.05 umol/kg administered through oral gavage after 90 mins by tail flick method; assay type: functional
Mus musculus [31] = experiment: Analgesic activity in ICR mouse assessed as pain threshold at 0.05 umol/kg administered through oral gavage after 60 mins by tail flick method; assay type: functional
HUVEC [32] = experiment: Inhibition of simulated ischemia/reperfusion-induced ROS production in human HUVEC cells at 30 ug/ml after 2 hrs by Hoechst 33342 dye based fluorescence assay; assay type: functional, cell-based
Mus musculus [33] = experiment: Analgesic activity in ICR mouse assessed as pain threshold at 0.055 umol/kg administered through oral gavage after 150 mins by tail flick method; assay type: functional
[34] = Antioxidant activity in sodium nitroprusside-stimulated rat PC12 cells assessed as NO radical scavenging activity measured as cell survival preincubated with compound for 1 hr followed by addition of sodium nitroprusside for 2 measured after 14 hrs by MTT assay; assay type: functional, cell-based; conditions: pc-12
Mus musculus [35] = experiment: Antiinflammatory activity in ICR mouse assessed as inhibition of xylene-induced ear edema at 0.05 umol/kg, po administered 30 mins prior to xylene challenge measured after 2hrs; assay type: functional
Mus musculus [36] = experiment: Analgesic activity in ICR mouse assessed as pain threshold at 0.055 umol/kg administered through oral gavage after 180 mins by tail flick method; assay type: functional
[37] = Antioxidant activity in rat PC12 cells assessed as H2O2 radical scavenging activity measured as cell survival preincubated with compound for 1 hr measured after 14 hrs by MTT assay; assay type: functional, cell-based; conditions: pc-12
Mus musculus [38] = experiment: Analgesic activity in ICR mouse assessed as pain threshold at 0.15 umol/kg administered through oral gavage after 90 mins by tail flick method; assay type: functional
Mus musculus [39] = experiment: Analgesic activity in ICR mouse assessed as pain threshold at 0.15 umol/kg administered through oral gavage after 120 mins by tail flick method; assay type: functional
Mus musculus [40] = experiment: Antiinflammatory activity in ICR mouse assessed as inhibition of xylene-induced ear edema at 0.15 umol/kg, po administered 30 mins prior to xylene challenge measured after 2hrs; assay type: functional

SMILES	Activity (Mus musculus [17]) [%]	Activity (Mus musculus [20]) [%]	Activity (Mus musculus [22]) [%]	inhibition (INH) (Mus musculus [2]) [%]	Activity (Mus musculus [24]) [%]	Activity (Mus musculus [25]) [%]	EC50 [26] [µM]	Activity (Mus musculus [27]) [%]	EC50 [34] [µM]	EC50 [37] [µM]	further results
CC1(C)N([O])C(c2ccc(OCC(=O)O)cc2)=[N+]([O-])C1(C)C											Activity (Mus musculus [1]): 20.97%; inhibition in vivo at 0.1 µmol/kg (Mus musculus [2]): 29.7%; Activity (Mus musculus [3]): 21.11%; Activity (Mus musculus [4]): 12.31%; Activity (Mus musculus [5]): 23.18%; Activity (Mus musculus [6]): 13.05%; Activity (Mus musculus [7]): 9.1%
CC(=O)Oc1ccccc1C(=O)O [ASPIRIN]											Activity (Mus musculus [8]): 33.21%; inhibition in vivo at 0.1 µmol/kg (Mus musculus [2]): 49.9%; Activity (Mus musculus [9]): 20.56%; Activity (Mus musculus [10]): 15.84%; Activity (Mus musculus [11]): 53.2%; Activity (Mus musculus [12]): 25.21%; Activity (Mus musculus [13]): 66.32%
CC1(C)N([O])C(c2ccc(OCC(=O)NCCNC(=O)[C@H](Cc3ccc(O)cc3)NC(=O)[C@@H](N)CCCNC(=N)N)cc2)=[N+]([O-])C1(C)C	48.17	35.74	15.28	50.68	23.15	25.75	33.9	37.11	19.5	32.5	Activity (Mus musculus [14]): 17.89%; Activity (Mus musculus [15]): 27.67%; Activity (HUVEC [16]): 47.8%; Activity (Mus musculus [18]): 39.13%; Activity (Mus musculus [19]): 7.48%; inhibition (HUVEC [21]): Active; Activity (Mus musculus [23]): 15.78%; Activity (Mus musculus [28]): 28.65%; Activity (HUVEC [29]): 41.5%; Activity (Mus musculus [30]): 13.57%; Activity (Mus musculus [31]): 10.35%; Activity (HUVEC [32]): Active; Activity (Mus musculus [33]): 11.91%; inhibition (INH) (Mus musculus [35]): 21.21%; Activity (Mus musculus [36]): 9.14%; Activity (Mus musculus [38]): 32.33%; Activity (Mus musculus [39]): 50.61%; inhibition (INH) (Mus musculus [40]): 58.15%
CCc1cc(O)ccc1C[C@H](NC(=O)COc1ccc(C2=[N+]([O-])C(C)(C)C(C)(C)N2[O])cc1)C(=O)N[C@@H](CCCNC(=N)N)C(=O)O	22.78	21.89	10.78	30.26	15.04	17.31	22.7	22.34	8.1	31.3	
COc1cc(O)ccc1C[C@H](NC(=O)COc1ccc(C2=[N+]([O-])C(C)(C)C(C)(C)N2[O])cc1)C(=O)N[C@@H](CCCNC(=N)N)C(=O)O	27.14	22.47	11.37	29.27	11.24	16.33	22.7	24.12	8.1	31.3	
CC1(C)N([O])C(c2ccc(OCC(=O)N[C@@H](CCCNC(=N)N)C(=O)N[C@@H](Cc3ccc(O)cc3)C(=O)O)cc2)=[N+]([O-])C1(C)C	13.18	26.97	10.1	28.29	10.05	14.31	22.7	11.91	8.1	31.3	
CC1(C)N([O])C(c2ccc(OCC(=O)N[C@@H](Cc3ccc(O)cc3)C(=O)N[C@@H](CCC(=O)O)C(=O)O)cc2)=[N+]([O-])C1(C)C	13.58	26.41	11.1	32.22	14.22	13.44	22.7	15.11	8.1	31.3	
NC(N)=NCCC[C@H](NC(=O)[C@@H](N)Cc1ccc(O)cc1)C(=O)O [KYOTORPHIN]											Activity (Mus musculus [1]): 25.35%; inhibition in vivo at 0.1 µmol/kg (Mus musculus [2]): 25.9%; Activity (Mus musculus [3]): 12.11%; Activity (Mus musculus [4]): 22.78%; Activity (Mus musculus [5]): 12.32%; Activity (Mus musculus [6]): 10.55%; Activity (Mus musculus [7]): 16.08%
CC1(C)N([O])C(c2ccc(OCC(=O)N[C@@H](Cc3ccc(O)cc3)C(=O)N[C@@H](CCCNC(=N)N)C(=O)O)cc2)=[N+]([O-])C1(C)C	40.01	31.45	12.53	40.86	14.45	18.66	22.7	34.14	8.1	31.3	
CC1(C)N([O])C(c2ccc(OCC(=O)N[C@@H](Cc3ccc(O)c(CO)c3)C(=O)N[C@@H](CCCNC(=N)N)C(=O)O)cc2)=[N+]([O-])C1(C)C	25.78	22.37	12.12	31.23	20.14	19.13	22.7	33.56	8.1	31.3	
CC1(C)N([O])C(c2ccc(OCC(=O)N[C@@H](Cc3ccc(O)cc3)C(=O)N[C@@H](CCCCN)C(=O)O)cc2)=[N+]([O-])C1(C)C	38.33	29.31	12.56	36.94	13.58	19.35	22.7	33.73	8.1	31.3	
CC1(C)N([O])C(c2ccc(OCC(=O)NCCCNC(=O)[C@H](Cc3ccc(O)cc3)NC(=O)[C@@H](N)CCCNC(=N)N)cc2)=[N+]([O-])C1(C)C	60.32	44.76	16.3	73.47	22.01	29.36	22.7	51.33	8.1	31.3	Activity (Mus musculus [14]): 20.17%; Activity (Mus musculus [15]): 30.34%; Activity (HUVEC [16]): 27.8%; Activity (Mus musculus [18]): 52.45%; Activity (Mus musculus [19]): 8.16%; inhibition (HUVEC [21]): Active; Activity (Mus musculus [23]): 25.36%; Activity (Mus musculus [28]): 33.47%; Activity (HUVEC [29]): 55.7%; Activity (Mus musculus [30]): 18.37%; Activity (Mus musculus [31]): 12.31%; Activity (HUVEC [32]): Active; Activity (Mus musculus [33]): 19.35%; inhibition (INH) (Mus musculus [35]): 37.33%; Activity (Mus musculus [36]): 16.28%; Activity (Mus musculus [38]): 50.35%; Activity (Mus musculus [39]): 68.42%; inhibition (INH) (Mus musculus [40]): 78.58%
Cc1cc(C[C@H](NC(=O)COc2ccc(C3=[N+]([O-])C(C)(C)C(C)(C)N3[O])cc2)C(=O)N[C@@H](CCCNC(=N)N)C(=O)O)ccc1O	31.21	22.1	10.24	29.47	12.38	18.97	22.7	13.25	8.1	31.3	
